Data as given in patent publication US20230339991A1, “HYPOXIA-ACTIVATED DNA ALKYLATING AGENT AND MEDICAL USE THEREOF” (ASCENTAWITS PHARMACEUTICALS, LTD., priority 2020, published 2023).
“And” between values parts separate entries of the source, which are not always exact repeats. Equal values may be shown once. Read-outs that look alike come from different tables or passages of the source.

Experiments:
[1] = Blood-brain barrier experiment, brain and plasma concentrations after IV dosing; assay type: in vivo, CD-1 mice; details: for Kp: read-out: AUClnf Ratio (Brain/Plasma); for half-life: read-out: T½ (converted); for blood-brain barrier penetration: detected in brain tissue
Description: Three CD-1 […] were administered 1 mg/kg of the test compound intravenously at each time point. Blood and brain tissue were collected at 5 min, 15 min, 1 h, 2 h, 4 h and 8 h after administration.

[2] = test system: human lung cancer NCI-H460 subcutaneous xenograft; test: Human lung cancer NCI-H460 subcutaneous xenograft model, compounds B and C; assay type: in vivo, BALB/c nude mice; details: for relative tumor inhibition rate TGI (%): QD×5 per cycle, 2 cycles, Day 28
Description: BALB/c nude mice were subcutaneously inoculated with human lung cancer NCI-H460 cells to establish human lung cancer subcutaneous transplantation tumor model. […] The positive drug Irinotecan 40 mg/kg group was administered by intraperitoneal injection once every 4 days for 7 times, and observed for 4 days.

[3] = Plasma stability, monkey; assay type: in vitro ADME; details: Monkey plasma; after 30 minutes
Description: (§1) The pH of the plasma was checked and recorded. Note: a.
(§2) The final concentration of solvent was 0.5%.
(§3) The assay is performed in duplicate.

[4] = Plasma stability, mouse; assay type: in vitro ADME
Description: as §1, §2, §3

[5] = test system: HuPrime model GA6201 human gastric cancer subcutaneous transplantation PDX tumor; test: GA6201 human gastric cancer subcutaneous PDX model; assay type: in vivo, BALB/c nude mice
[6] = target: T1, CYP450R enzyme (Homo sapiens, UniProt P16435); test: Hypoxia-dependent reduction experiments; assay type: biochemical; details: NADPH and CYP 450R enzymes
T1 sequence (P16435 1-677): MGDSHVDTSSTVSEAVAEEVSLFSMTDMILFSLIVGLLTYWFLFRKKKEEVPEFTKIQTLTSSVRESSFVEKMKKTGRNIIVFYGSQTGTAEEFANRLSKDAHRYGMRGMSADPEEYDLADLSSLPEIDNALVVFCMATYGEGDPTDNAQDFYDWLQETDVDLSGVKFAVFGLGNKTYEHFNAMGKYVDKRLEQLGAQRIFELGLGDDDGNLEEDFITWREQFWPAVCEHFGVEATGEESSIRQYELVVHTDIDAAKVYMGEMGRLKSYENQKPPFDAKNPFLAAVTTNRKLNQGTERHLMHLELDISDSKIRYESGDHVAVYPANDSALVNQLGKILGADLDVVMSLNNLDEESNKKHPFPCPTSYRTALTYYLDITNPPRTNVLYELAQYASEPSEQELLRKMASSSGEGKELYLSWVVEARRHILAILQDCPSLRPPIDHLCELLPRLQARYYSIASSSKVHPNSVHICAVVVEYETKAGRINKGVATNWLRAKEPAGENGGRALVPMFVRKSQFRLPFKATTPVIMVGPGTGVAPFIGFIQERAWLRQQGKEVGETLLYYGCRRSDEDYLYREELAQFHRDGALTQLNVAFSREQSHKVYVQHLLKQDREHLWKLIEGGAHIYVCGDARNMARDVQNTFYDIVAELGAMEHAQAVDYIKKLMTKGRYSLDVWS
Description: The ingredients were added to each test tube without the addition of NADPH. Then 50 μl of sample from condition B was transferred to 100 μl acetonitrile (T=0). For samples to be tested under hypoxic conditions, the test tubes were placed in an hypoxic chamber (BACTRON anaerobic/environmental chamber). The reaction was initiated by adding NADPH to test tubes A and C and the sample was then placed at 37° C. For samples to be tested in air, the test tubes were placed in a hot plate at 37° C. After 30 minutes and 2 hours of incubation, 50 μl of samples were taken from each test tube and mixed with 100 μl acetonitrile. Any protein precipitate was removed by spinning all test tubes and placed into HPLC vials for analysis. The results were compared to the calibration curve of the real standard.

[7] = CD-1, mouse, brain, iv, 1 mg/kg, IV 1 mg/kg, 0.083 h, single animals, read-out: Brain concentration
[8] = CD-1, mouse, brain, iv, 1 mg/kg, IV 1 mg/kg, 0.25 h, single animals, read-out: Brain concentration
[9] = CD-1, mouse, brain, iv, 1 mg/kg, IV 1 mg/kg, 1 h, single animals, read-out: Brain concentration
[10] = CD-1, mouse, brain/plasma, iv, 1 mg/kg, IV 1 mg/kg, 0.083 h, read-out: Mean Ratio (Brain/Plasma)
[11] = CD-1, mouse, brain/plasma, iv, 1 mg/kg, IV 1 mg/kg, 0.083 h, single animals, read-out: Ratio (Brain/Plasma)
[12] = CD-1, mouse, brain/plasma, iv, 1 mg/kg, IV 1 mg/kg, 0.25 h, single animals, read-out: Ratio (Brain/Plasma)
[13] = CD-1, mouse, brain/plasma, iv, 1 mg/kg, IV 1 mg/kg, 1 h, read-out: Mean Ratio (Brain/Plasma)
[14] = CD-1, mouse, brain/plasma, iv, 1 mg/kg, IV 1 mg/kg, 1 h, single animals, read-out: Ratio (Brain/Plasma)
[15] = CD-1, mouse, brain/plasma, iv, 1 mg/kg, IV 1 mg/kg, 2 h, read-out: Mean Ratio (Brain/Plasma)
[16] = CD-1, mouse, brain/plasma, iv, 1 mg/kg, IV 1 mg/kg
[17] = CD-1, mouse, plasma, iv, 1 mg/kg, IV 1 mg/kg, 0.083 h, single animals, read-out: Plasma concentration
[18] = CD-1, mouse, plasma, iv, 1 mg/kg, IV 1 mg/kg, 0.25 h, single animals, read-out: Plasma concentration
[19] = CD-1, mouse, brain tissue, IV 1 mg/kg
[20] = CD-1, mouse, plasma, IV 1 mg/kg
[21] = IV 1 mg/kg, 0.083 h, single animals, 1 mg/kg
[22] = IV 1 mg/kg, 0.25 h, single animals, 1 mg/kg
[23] = IV 1 mg/kg, 1 h, single animals, 1 mg/kg
[24] = IV 1 mg/kg, 2 h, single animals, 1 mg/kg
[25] = IV 1 mg/kg, 4 h, single animals
[26] = IV 1 mg/kg, 8 h, single animals
[27] = IV 1 mg/kg, 4 h, single animals, 1 mg/kg

## O=[N+]([O-])c1ccc([C@@H](OP(=O)(N2CC2)N2CC2)C(F)(F)F)c2ccccc12 (single isomer, unassigned) [Compound C]
[1]; [7]
  concentration at 0.083 h: 415 ng/g
[1]; [8]
  concentration at 0.25 h: 146 ng/g
[1]; [9]
  concentration at 1 h: 28.6 ng/g
[1]; [10]
  Kp at 0.083 h: 1.07
[1]; [11]
  Kp at 0.083 h: 0.99
[1]; [12]
  Kp at 0.25 h: 0.82
[1]; [13]
  Kp at 1 h: 0.54
[1]; [14]
  Kp at 1 h: 0.52
[1]; [15]
  Kp at 2 h: 1.11
[1]; [16]
  Kp: 0.73
[1]; [17]
  concentration at 0.083 h: 417 ng/mL
[1]; [18]
  concentration at 0.25 h: 179 ng/mL
[1]; [19]
  half-life: 21 min
[1]; [20]
  AUC(0-t): 188 ng·h/mL
  C0: 694 ng/mL
  half-life: 18 min
[1]; [21]
  Brain concentration: 541.99 ng/g and 377.29 ng/g
  Plasma concentration: 390.41 ng/mL and 456.85 ng/mL
  Ratio (Brain/Plasma): 1.39 and 0.83
[1]; [22]
  Brain concentration: 131.63 ng/g and 120.75 ng/g
  Plasma concentration: 132.02 ng/mL and 154.92 ng/mL
  Ratio (Brain/Plasma): 1.00 and 0.78
[1]; [23]
  Brain concentration: 18.01 ng/g and 15.01 ng/g
  Plasma concentration: 54.81 ng/mL and 25.61 ng/mL and 37.23 ng/mL
  Ratio (Brain/Plasma): 0.70 and 0.40
[1]; [24]
  Brain concentration: 8.31 ng/g and 1.90 ng/g and BLOQ
  Plasma concentration: 4.69 ng/mL and 2.16 ng/mL and 1.64 ng/mL
  Ratio (Brain/Plasma): 0.88
[1]; [25]
  Brain concentration: BLOQ
  Plasma concentration: BLOQ
[1]; [26]
  Brain concentration: BLOQ
  Plasma concentration: BLOQ
[1]; brain tissue, IV 1 mg/kg
  AUClast: 136.59 ng·h/g
  AUClnf: 138.68 ng·h/g
  MRTlnf_obs: 20.4 min
[1]
  blood-brain barrier penetration: can penetrate the blood-brain barrier
[1]; plasma, IV 1 mg/kg
  Cl_obs: 87.92 mL/min/kg
  MRTlnf_obs: 19.8 min
  Vss_obs: 1.73 L/kg
[2]; 20 mg/kg i.p.
  relative tumor inhibition rate TGI (%): 90.56%
[2]; 40 mg/kg i.p.
  relative tumor inhibition rate TGI (%): 94.33%
[2]; group 6, 20 mg/kg, Day35
  complete cure rate on tumors: 20%

## O=[N+]([O-])c1ccc([C@H](OP(=O)(N2CC2)N2CC2)C(F)(F)F)c2ccccc12 [Compound B]
[1]; [7]
  concentration at 0.083 h: 992 ng/g
[1]; [8]
  concentration at 0.25 h: 499 ng/g
[1]; [9]
  concentration at 1 h: 88.1 ng/g
[1]; CD-1, mouse, brain, iv, 1 mg/kg, IV 1 mg/kg, 2 h, single animals, read-out: Brain concentration
  concentration at 2 h: 9 ng/g
[1]; CD-1, mouse, brain, iv, 1 mg/kg, IV 1 mg/kg, 4 h, single animals
  concentration at 4 h: 1.34 ng/g
[1]; [10]
  Kp at 0.083 h: 2.25
[1]; [11]
  Kp at 0.083 h: 2.18
[1]; [12]
  Kp at 0.25 h: 1.47
[1]; [13]
  Kp at 1 h: 1.39
[1]; [14]
  Kp at 1 h: 1.26
[1]; [15]
  Kp at 2 h: 1.34
[1]; CD-1, mouse, brain/plasma, iv, 1 mg/kg, IV 1 mg/kg, 4 h, single animals, read-out: Ratio (Brain/Plasma)
  Kp at 4 h: 1.19
[1]; [16]
  Kp: 1.49
[1]; [17]
  concentration at 0.083 h: 454 ng/mL
[1]; [18]
  concentration at 0.25 h: 341 ng/mL
[1]; CD-1, mouse, plasma, iv, 1 mg/kg, IV 1 mg/kg, 1 h, single animals, read-out: Plasma concentration
  concentration at 1 h: 70 ng/mL
[1]; CD-1, mouse, plasma, iv, 1 mg/kg, IV 1 mg/kg, 2 h, single animals, read-out: Plasma concentration
  concentration at 2 h: 8.54 ng/mL
[1]; [19]
  half-life: 19.8 min
[1]; [20]
  AUC(0-t): 289 ng·h/mL
  C0: 532 ng/mL
  half-life: 27 min
[1]; [21]
  Brain concentration: 1038.97 ng/g and 916.57 ng/g
  Plasma concentration: 485.00 ng/mL and 393.31 ng/mL
  Ratio (Brain/Plasma): 2.23 and 2.33
[1]; [22]
  Brain concentration: 480.24 ng/g and 420.87 ng/g
  Plasma concentration: 289.25 ng/mL and 256.49 ng/mL
  Ratio (Brain/Plasma): 1.66 and 1.64
[1]; [23]
  Brain concentration: 104.66 ng/g and 103.20 ng/g
  Plasma concentration: 87.46 ng/mL and 75.23 ng/mL
  Ratio (Brain/Plasma): 1.55 and 1.37
[1]; [24]
  Brain concentration: 13.14 ng/g and 15.08 ng/g
  Plasma concentration: 9.83 ng/mL and 11.45 ng/mL
  Ratio (Brain/Plasma): 1.32
[1]; [27]
  Brain concentration: BLOQ
  Plasma concentration: 1.13 ng/mL and 0.52 ng/mL and 0.28 ng/mL
[1]; [26]
  Brain concentration: BLOQ
  Plasma concentration: BLOQ
[1]; brain tissue, IV 1 mg/kg
  AUClast: 429.34 ng·h/g
  AUClnf: 435.32 ng·h/g
  MRTlnf_obs: 24.6 min
[1]
  blood-brain barrier penetration: can penetrate the blood-brain barrier
[1]; plasma, IV 1 mg/kg
  Cl_obs: 57.63 mL/min/kg
  MRTlnf_obs: 27.6 min
  Vss_obs: 1.59 L/kg
[2]; 20 mg/kg i.p.
  relative tumor inhibition rate TGI (%): 88.51%

## CC(OP(=O)(N1CC1)N1CC1)c1ccc([N+](=O)[O-])c2ccccc12 (stereo not shown) [Compound D]
[3]
  Remaining percentage: 87.66%
[4]; Mouse plasma, after 30 minutes
  Remaining percentage: 87.35%
[4]; mouse plasma
  plasma stability: relatively unstable

## Cn1c(COP(=O)(NCCBr)NCCBr)cnc1[N+](=O)[O-] [TH-302, Evofosfamide]
[5]; Group 02, 60 mg/kg i.p., day 3
  tumor volume: 122.22 mm^3
[5]; Group 02, 60 mg/kg i.p., day 7
  tumor volume: 129.39 mm^3
[5]; Group 02, 60 mg/kg i.p., day 10
  tumor volume: 175.00 mm^3
[5]; Group 02, 60 mg/kg i.p., day 14
  tumor volume: 190.74 mm^3
[5]; Group 02, 60 mg/kg i.p., day 17
  tumor volume: 189.23 mm^3
[5]; Group 02, 60 mg/kg i.p., day 21
  tumor volume: 217.96 mm^3
[5]; Group 02, 60 mg/kg i.p., day 24
  tumor volume: 225.66 mm^3
[5]; Group 02, 60 mg/kg i.p., day 28
  tumor volume: 247.04 mm^3
[5]; Group 02, 60 mg/kg i.p., day 31
  tumor volume: 265.76 mm^3
[5]; Group 02, 60 mg/kg i.p., day 35
  tumor volume: 324.51 mm^3
[5]; Group 02, 60 mg/kg i.p., day 38
  tumor volume: 371.02 mm^3
[5]; Group 02, 60 mg/kg i.p., day 42
  tumor volume: 403.47 mm^3
[5]; Group 02, 60 mg/kg i.p., day 45
  tumor volume: 484.83 mm^3
[5]; Group 02, 60 mg/kg i.p., day 49
  tumor volume: 578.60 mm^3
[5]; Group 02, 60 mg/kg, QDx5/week × 2 wks, i.p., day 0
  tumor volume: 94.15 mm^3
[6]
  reduction rate compared (compound A vs TH-302): similar
